≈ marks a conversion by molar mass, not a printed value.
Tests used:
Format in all cases: functional
Corynebacterium jeikeium [1] = assay: Antimicrobial activity against Corynebacterium jeikeium at 0.5 ug/ml by broth microdilution method
[2] = tested on: Corynebacterium pseudodiphtheriticum; assay: Antimicrobial activity against Corynebacterium pseudodiphtheriticum at <= 0.06 ug/ml by broth microdilution method
Corynebacterium striatum = assay: Antimicrobial activity against Corynebacterium striatum at 0.25 ug/ml by broth microdilution method
Enterococcus avium [3] = assay: Antimicrobial activity against Enterococcus avium at 0.25 ug/ml by broth microdilution method
Enterococcus avium [4] = assay: Antimicrobial activity against Enterococcus avium at 2 ug/ml by broth microdilution method
Enterococcus avium [5] = assay: Antimicrobial activity against Enterococcus avium at 4 ug/ml by broth microdilution method
[6] = tested on: Enterococcus casseliflavus; assay: Antimicrobial activity against Enterococcus casseliflavus at 0.12 ug/ml by broth microdilution method
Enterococcus durans = assay: Antimicrobial activity against Enterococcus durans at <= 0.06 ug/ml by broth microdilution method
Streptococcus [7] = assay: Antimicrobial activity against beta hemolytic Streptococci group G at <= 0.06 ug/ml by broth microdilution method
Streptococcus [8] = assay: Antimicrobial activity against beta hemolytic Streptococci group G at 0.12 ug/ml by broth microdilution method
Streptococcus [9] = assay: Antimicrobial activity against beta hemolytic Streptococci group G at 0.5 ug/ml by broth microdilution method
[10] = tested on: Streptococcus constellatus; assay: Antimicrobial activity against viridans group Streptococcus constellatus at 0.25 ug/ml by broth microdilution method
Streptococcus equinus [11] = assay: Antimicrobial activity against viridans group Streptococcus bovis at 0.25 ug/ml by broth microdilution method
Aerococcus = assay: Antimicrobial activity against Aerococcus spp. at 1 ug/ml by broth microdilution method
Bacillus sp. [12] = assay: Antimicrobial activity against Bacillus spp. at 0.25 ug/ml by broth microdilution method; conditions: Bacillus sp. (in: firmicutes)
Bacillus sp. [13] = assay: Antimicrobial activity against Bacillus spp. at 1 ug/ml by broth microdilution method; conditions: Bacillus sp. (in: firmicutes)
Streptococcus [14] = assay: Antimicrobial activity against beta hemolytic Streptococci group C at <= 0.06 ug/ml by broth microdilution method
Streptococcus salivarius = assay: Antimicrobial activity against viridans group Streptococcus salivarius at 0.5 ug/ml by broth microdilution method
Streptococcus anginosus [15] = assay: Antimicrobial activity against viridans group Streptococcus anginosus at 0.12 ug/ml by broth microdilution method
Streptococcus anginosus [16] = assay: Antimicrobial activity against viridans group Streptococcus anginosus at 0.25 ug/ml by broth microdilution method
Streptococcus anginosus [17] = assay: Antimicrobial activity against viridans group Streptococcus anginosus at 2 ug/ml by broth microdilution method
Enterococcus gallinarum = assay: Antimicrobial activity against Enterococcus gallinarum at 0.12 ug/ml by broth microdilution method
Enterococcus hirae = assay: Antimicrobial activity against Enterococcus hirae at 2 ug/ml by broth microdilution method
Enterococcus raffinosus [18] = assay: Antimicrobial activity against Enterococcus raffinosus at 0.12 ug/ml by broth microdilution method
Enterococcus raffinosus [19] = assay: Antimicrobial activity against Enterococcus raffinosus at 1 ug/ml by broth microdilution method
Listeria monocytogenes = assay: Antimicrobial activity against Listeria monocytogenes at <= 0.06 ug/ml by broth microdilution method
Micrococcus luteus [20] = assay: Antimicrobial activity against Micrococcus luteus at <= 0.06 ug/ml by broth microdilution method
Rothia mucilaginosa = assay: Antimicrobial activity against Rothia mucilaginosa at 0.25 ug/ml by broth microdilution method
Corynebacterium sp. = assay: Antimicrobial activity against Corynebacterium spp. by broth microdilution method
[21] = tested on: Corynebacterium amycolatum; assay: Antimicrobial activity against Corynebacterium amycolatum by broth microdilution method
Corynebacterium jeikeium [22] = assay: Antimicrobial activity against Corynebacterium jeikeium by broth microdilution method
Enterococcus raffinosus [23] = assay: Antimicrobial activity against Enterococcus raffinosus by broth microdilution method
Micrococcus luteus [24] = assay: Antimicrobial activity against Micrococcus luteus by broth microdilution method
Streptococcus mutans [25] = assay: Antimicrobial activity against viridans group Streptococcus mutans at 0.12 ug/ml by broth microdilution method
[26] = tested on: Streptococcus parasanguinis; assay: Antimicrobial activity against viridans group Streptococcus parasanguis at 1 ug/ml by broth microdilution method
Streptococcus sanguinis [27] = assay: Antimicrobial activity against viridans group Streptococcus sanguinis at <= 0.06 ug/ml by broth microdilution method
Streptococcus sanguinis [28] = assay: Antimicrobial activity against viridans group Streptococcus sanguinis at 0.12 ug/ml by broth microdilution method
Streptococcus equinus [29] = assay: Antimicrobial activity against viridans group Streptococcus bovis at 2 ug/ml by broth microdilution method
[30] = tested on: Streptococcus constellatus; assay: Antimicrobial activity against viridans group Streptococcus constellatus at 0.5 ug/ml by broth microdilution method
[31] = tested on: Streptococcus constellatus; assay: Antimicrobial activity against viridans group Streptococcus constellatus at 2 ug/ml by broth microdilution method
Streptococcus gordonii [32] = assay: Antimicrobial activity against viridans group Streptococcus gordonii at <= 0.06 ug/ml by broth microdilution method
Streptococcus gordonii [33] = assay: Antimicrobial activity against viridans group Streptococcus gordonii at 0.25 ug/ml by broth microdilution method
Streptococcus gordonii [34] = assay: Antimicrobial activity against viridans group Streptococcus gordonii at 0.5 ug/ml by broth microdilution method
Streptococcus gordonii [35] = assay: Antimicrobial activity against viridans group Streptococcus gordonii at 1 ug/ml by broth microdilution method
[36] = tested on: Streptococcus intermedius; assay: Antimicrobial activity against viridans group Streptococcus intermedius at 0.12 ug/ml by broth microdilution method
[37] = tested on: Streptococcus intermedius; assay: Antimicrobial activity against viridans group Streptococcus intermedius at 0.5 ug/ml by broth microdilution method
[38] = tested on: Streptococcus intermedius; assay: Antimicrobial activity against viridans group Streptococcus intermedius at 2 ug/ml by broth microdilution method
Streptococcus mutans [39] = assay: Antimicrobial activity against viridans group Streptococcus mutans at <= 0.06 ug/ml by broth microdilution method
Streptococcus sanguinis [40] = assay: Antimicrobial activity against viridans group Streptococcus sanguinis at 0.25 ug/ml by broth microdilution method
[41] = tested on: Streptococcus vestibularis; assay: Antimicrobial activity against viridans group Streptococcus vestibularis at 0.5 ug/ml by broth microdilution method
Streptococcus anginosus [42] = assay: Antimicrobial activity against viridans group Streptococcus anginosus by broth microdilution method
[43] = tested on: Streptococcus intermedius; assay: Antimicrobial activity against viridans group Streptococcus intermedius by broth microdilution method
Streptococcus mitis = assay: Antimicrobial activity against viridans group Streptococcus mitis by broth microdilution method
Streptococcus sanguinis [44] = assay: Antimicrobial activity against viridans group Streptococcus sanguinis by broth microdilution method
Streptococcus mutans [45] = assay: Antimicrobial activity against viridans group Streptococcus mutans by broth microdilution method

`CC(=O)NC[C@H]1CN(c2ccc(N3CCOCC3)c(F)c2)C(=O)O1` [LINEZOLID] gave an inhibition at 0.5 µg/mL (Corynebacterium jeikeium [1]) of 98.3%, an Inhibition [2] of 0% and an inhibition at 0.25 µg/mL (Corynebacterium striatum) of 88%. The inhibition at 0.25 µg/mL (Enterococcus avium [3]) was 0%, the inhibition at 2 µg/mL (Enterococcus avium [4]) was 99.1% and the inhibition at 4 µg/mL (Enterococcus avium [5]) was 100%. For the same compound, the inhibition at 0.12 µg/mL [6] was 0%, the Inhibition (Enterococcus durans) was 0% and the Inhibition (Streptococcus [7]) was 0.5%. For the same compound, the inhibition at 0.12 µg/mL (Streptococcus [8]) was 0.5%, the inhibition at 0.5 µg/mL (Streptococcus [9]) was 8.2% and the inhibition at 0.25 µg/mL [10] was 12.4%. The inhibition at 0.25 µg/mL (Streptococcus equinus [11]) was 2.7%, the inhibition at 1 µg/mL (Aerococcus) was 63.6% and the inhibition at 0.25 µg/mL (Bacillus sp. [12]) was 4.9%. It also gave an inhibition at 1 µg/mL (Bacillus sp. [13]) of 97.2%, an Inhibition (Streptococcus [14]) of 0% and an inhibition at 0.5 µg/mL (Streptococcus salivarius) of 46.2%. It also gave an inhibition at 0.12 µg/mL (Streptococcus anginosus [15]) of 2.9%, an inhibition at 0.25 µg/mL (Streptococcus anginosus [16]) of 7.7% and an inhibition at 2 µg/mL (Streptococcus anginosus [17]) of 100%. The inhibition at 0.12 µg/mL (Enterococcus gallinarum) was 0%, the inhibition at 2 µg/mL (Enterococcus hirae) was 100% and the inhibition at 0.12 µg/mL (Enterococcus raffinosus [18]) was 0%. For the same compound, the inhibition at 1 µg/mL (Enterococcus raffinosus [19]) was 46.2%, the Inhibition (Listeria monocytogenes) was 0% and the Inhibition (Micrococcus luteus [20]) was 0%. For the same compound, the inhibition at 0.25 µg/mL (Rothia mucilaginosa) was 16.7%, the MIC50 (Corynebacterium sp.) was 0.25 µg/mL (≈ 0.741 µM) and the MIC90 (Corynebacterium sp.) was 0.5 µg/mL (≈ 1.48 µM). For the same compound, the MIC50 [21] was 0.25 µg/mL (≈ 0.741 µM), the MIC90 [21] was 0.25 µg/mL (≈ 0.741 µM) and the MIC50 (Corynebacterium jeikeium [22]) was 0.25 µg/mL (≈ 0.741 µM). The MIC90 (Corynebacterium jeikeium [22]) was 0.5 µg/mL (≈ 1.48 µM), the MIC50 (Enterococcus raffinosus [23]) was 2 µg/mL (≈ 5.93 µM) and the MIC90 (Enterococcus raffinosus [23]) was 2 µg/mL (≈ 5.93 µM). The MIC50 (Micrococcus luteus [24]) was 0.5 µg/mL (≈ 1.48 µM), the MIC90 (Micrococcus luteus [24]) was 1 µg/mL (≈ 2.96 µM) and the inhibition at 0.12 µg/mL (Streptococcus mutans [25]) was 0%. For the same compound, the inhibition at 1 µg/mL [26] was 100%, the Inhibition (Streptococcus sanguinis [27]) was 0% and the inhibition at 0.12 µg/mL (Streptococcus sanguinis [28]) was 0.7%. The inhibition at 2 µg/mL (Streptococcus equinus [29]) was 100%, the inhibition at 0.5 µg/mL [30] was 42.7% and the inhibition at 2 µg/mL [31] was 100%. It also gave an Inhibition (Streptococcus gordonii [32]) of 0%, an inhibition at 0.25 µg/mL (Streptococcus gordonii [33]) of 0% and an inhibition at 0.5 µg/mL (Streptococcus gordonii [34]) of 33.3%. It also gave an inhibition at 1 µg/mL (Streptococcus gordonii [35]) of 100%, an inhibition at 0.12 µg/mL [36] of 0% and an inhibition at 0.5 µg/mL [37] of 24.2%. For the same compound, the inhibition at 2 µg/mL [38] was 100%, the Inhibition (Streptococcus mutans [39]) was 0% and the inhibition at 0.25 µg/mL (Streptococcus sanguinis [40]) was 4.2%. The inhibition at 0.5 µg/mL [41] was 36.4%, the MIC50 (Streptococcus anginosus [42]) was 1 µg/mL (≈ 2.96 µM) and the MIC90 (Streptococcus anginosus [42]) was 1 µg/mL (≈ 2.96 µM). It also gave an MIC50 [43] of 1 µg/mL (≈ 2.96 µM), an MIC90 [43] of 2 µg/mL (≈ 5.93 µM) and an MIC50 (Streptococcus mitis) of 1 µg/mL (≈ 2.96 µM). For the same compound, the MIC90 (Streptococcus mitis) was 1 µg/mL (≈ 2.96 µM), the MIC50 (Streptococcus sanguinis [44]) was 1 µg/mL (≈ 2.96 µM) and the MIC90 (Streptococcus sanguinis [44]) was 1 µg/mL (≈ 2.96 µM). It also gave an MIC50 (Streptococcus mutans [45]) of 1 µg/mL (≈ 2.96 µM) and an MIC90 (Streptococcus mutans [45]) of 2 µg/mL (≈ 5.93 µM).

— ChEMBL document CHEMBL1145534 (2007)
